Measured values as given in patent US20040001818A1, “Methods of inhibiting angiogenesis using NADPH oxidase inhibitors” (priority 2000, published 2004).
Starred links: 1 amine or outer side, 2 acyl side, 3 side chain; linkers in the order of their positions; H or OH if unused. Positions of bridges follow the written chain, without caps; N, C: chain ends. Non-standard residues stand in square brackets, D forms with d. Residues, ends and D or L forms follow the SMILES beside them. Chains are numbered I, II in the order given. Actinocin(9to1) = Cc1c2oc3c(C)ccc(C(=O)[*:1])c3nc-2c(C(=O)[*:2])c(N)c1=O; NMeV = CN[C@H](C(=O)O)C(C)C; Sar = CNCC(=O)O

Legend:
[1] = system: human coronary artery endothelial cells (HCAECs); experiment: [3H]-thymidine incorporation in HCAECs; assay type: cell-based; details: for thymidine incorporation: HCAECs grown in 10% FBS
Procedure: To determine whether the effect of serum or VEGF on endothelial cell proliferation might also be dependent upon ambient levels of ROS, HCAECs were grown to confluence, split into 24 wells, serum starved for eight hours and then incubated in the absence or presence of VEGF for 16 or 24 hours. All wells received 1 μCi of [^3H]-thymidine at the time of treatment. After 16 or 24 hours, medium was removed, and the wells were washed 3 times with PBS. Radioactivity was extracted and thymidine incorporation measured using a scintillation counter.

MnSOD mRNA = experiment: Northern blot of MnSOD mRNA in HCAECs; assay type: cell-based, human; details: for VEGF-mediated induction of MnSOD: serum-starved HCAECs, VEGF 50 ng/ml, four hours, DPI 5, 25, 100 μM, apocynin 0.3, 2, 5 mM, allopurinol 0.1, 0.5 mM; for VEGF stimulation of MnSOD: HCAEC pre-incubated with 1 μM GF-109203X, 50 μM PD98059 or 20 μM SB 203580
Procedure: Cell culture. Human coronary artery endothelial cells (HCAECs) (Clonetics Corporation, San Diego, Calif., USA) and human pulmonary artery endothelial cells (HPAECs) were grown in Endothelial Growth Medium-2-MV (EGM-2-MV) BulletKit (Clonetics Corporation, San Diego, Calif., USA). At 80-90% confluence, the cells were serum-starved in DMEM containing 0.5% FBS for 24 hours and subsequently treated with VEGF-supplemented medium for the times indicated. Human recombinant VEGF was purchased from PeproTech, Inc. (Rocky Hill, N.J., USA). […] In other studies, the serum-starved cells were pretreated with the MEK inhibitor PD98059 at a final concentration of 50 μM or a specific PKC inhibitor bisindolylmaleimide I (BIM; CalBiochem, San Diego, Calif., USA) at a final concentration of 5 μM for 30 minutes prior to addition of growth factors. An equal amount of DMSO was added to the control plates. Northern blot analyses. Ten micrograms total RNA was loaded on a 0.7% formaldehyde-containing agarose gel. The RNA was transferred to nylon membrane, covalently cross-linked with UV radiation, prehybridized for 6 hours, and hybridized for 18 hours at 42° C. with a [^32P]dCTP-labeled cDNA probe containing MnSOD or eNOS cDNA sequence. The membranes were subsequently stripped and probed with a radiolabeled 18S-ribosome probe. For actinomycin D experiments, HCAEC cells were pretreated with 10 μg/ml actinomycin D (Sigma Chemical Company, St. Louis, Mo., USA) for 30 minutes before addition of VEGF and were harvested for total RNA one hour later.
To determine whether VEGF induced expression of MnSOD in primary endothelial cell cultures, HCAECs and HPAECs were serum starved for 24 hours, treated with 40 ng/ml VEGF for 0, 0.5, 1, 2, 4, 12 and 24 hours, and then harvested for total RNA. Northern blots were performed and probed for human MnSOD. […] The membranes were then stripped and reprobed for eNOS.
To determine whether the response of MnSOD to VEGF was mediated by ROS, HCAECs were serum starved and then treated with VEGF in the absence or presence of inhibitors of NADPH oxidase (DPI, apocynin), xanthine oxidase (allopurinol) and nitric oxide synthase (L-NAME).

[2] = system: human coronary artery endothelial cells (HCAECs); experiment: VEGF-induced chemotaxis of HCAECs, Boyden chamber assay; assay type: cell-based; details: for inhibition of migration, dose dependence: VEGF 50 ng/ml, DPI 0.5, 1.0, 5.0, 10 μM, AEBSF 5, 50, 100, 250 μM
Procedure: The capacity of NADPH oxidase inhibitors to block migration of human coronary artery endothelial cells was tested. In these studies, VEGF-induced chemotaxis was tested with the Boyden chamber assay. Human coronary artery endothelial cells were serum starved in 0.5% FBS overnight. 25,000 cells were seeded into the upper chamber in the absence or presence of DPI, while media containing 0.5% FBS and 40 ng/ml was placed into the lower chamber. The chamber was incubated for 4 hours at 37° C., at which time the polycarbonate filters were harvested and counted for migrating cells. The results are shown in FIG. 14, which is a histogram showing the migration in terms of cell count (y-axis) of human coronary artery endothelial cells in a Boyden chamber. The cells were serum starved in 0.5% FBS and treated with either VEGF, DPI or VEGF+DPI (x-axis).
The effect of AEBSF on VEGF-induced migration was also studied. HCAECs were treated as above and treated by either VEGF, VEGF+100 μM allopurinol, or VEGF+250 μM AEBSF. The results are shown in FIG. 15, which is a histogram showing migration in terms of cell count (y-axis) when treated (x-axis). The NADPH oxidase inhibitor AEBSF abrograted the VEGF-mediated chemotaxis of HCAECs.
These are histograms showing VEGF-mediated chemotaxis in control HCAECs (“C”), or HCAECs treated with 50 ng/ml VEGF in the absence or presence of increasing doses of DPI (0.5, 1.0, 5.0 or 10 μM; FIG. 16A) or AEBSF (5, 50, 100 or 250 μM; FIG. 16B).

ROS = ROS generation: DCF oxidation by flow cytometry in DCFDA-labeled HCAECs; assay type: cell-based, human; details: relative to basal rate of control cells
Procedure: Western blot analyses. Whole cell protein extracts were prepared from serum-starved HCAECs and HPAECs one hour following addition of growth factor-supplemented or mock-treated media. Cells were washed twice with cold phosphate-buffered saline, harvested with a cell scraper, and lysed in ice-cold lysis buffer containing 20 mM HEPES, pH 7.5, 150 mM NaCl, 1% NP-40, 0.1% SDS, 1 mM EDTA, 1 mM DTT, 0.5 mM phenylmethylsulfonyl fluoride (PMSF), and the protease inhibitor cocktail (Boehringer Mannheim, Mannheim, Germany) for one hour. The resulting lysates were centrifuged at 10,000× g for 20 minutes and the supernatants were saved as whole cell protein extracts. Forty micrograms of protein were separated by 10% SDS-PAGE and electrotransferred to nitrocellulose membranes. Membranes were blocked with 5% nonfat dry milk in Tris-buffered saline with 0.1% Tween 20 for one hour at room temperature. The blot was incubated with primary rabbit polyclonal anti-MnSOD IgG (1:1000 dilution) (Santa Cruz Biotechnology Inc., Santa Cruz, Calif., USA) overnight at 4° C., followed by secondary antibody goat-anti-rabbit horseradish peroxidase conjugate (1:1000 dilution) (Pierce, Rockford, Ill., USA). The blot was washed extensively between each incubation step. Peroxidase activity was visualized with an enhanced chemiluminescense substrate system (Amersham, Arlington Heights, Ill., USA). Membranes were stripped and probed for eNOS and β-actin. Flow cytometry. Endothelial cells were labeled with DCFDA and oxidation of DCF was measured by flow cytometry.
To test whether VEGF increases ROS production in endothelial cells, HCAECs were labeled with […] DCFDA and oxidation of DCF was measured by flow cytometry. […] PMS is known to induce free oxygen radicals.

[3] = system: mouse embryonic fibroblasts; experiment: [3H]-thymidine incorporation in primary murine embryonic fibroblasts; assay type: cell-based; details: 10% FBS, 16 hours
Procedure: To determine whether the effect of NADPH oxidase inhibition was specific to endothelial cells, the effect of the various inhibitors on thymidine incorporation in primary murine embryonic fibroblasts was tested. The results are shown in FIG. 13, which is a histogram showing thymidine incorporation (y-axis) in mouse embryonic fibroblasts that have been grown in 0.5% FBS or 10% FBS in the absence (10% FBS) or presence of inhibitors (Apo=apocynin; allo=allopurinol; L-NAME) for 16 hours.

[4] = serum starved (0.5% FBS) and VEGF-treated HCAECs, 16 or 24 hours

SMILES: NCCc1ccc(S(=O)(=O)F)cc1 [AEBSF, 4-(2-aminoethyl)-benzenesulfonyl fluoride]
- thymidine uptake ([1]; HCAECs, 5% FBS, AEBSF 5, 50, 100, 500 μM): inhibited
- VEGF-mediated induction of MnSOD mRNA (MnSOD mRNA; pretreatment with the inhibitor, concentration not given): inhibited
- inhibition of migration, dose dependence [2]: dose-dependent
- VEGF-mediated chemotaxis ([2]; VEGF + 250 μM AEBSF): abrograted

SMILES: Cc1c2oc3c(C)ccc(C(=O)N[C@@H]4C(=O)N[C@H](C(C)C)C(=O)N5CCC[C@H]5C(=O)N(C)CC(=O)N(C)[C@@H](C(C)C)C(=O)O[C@@H]4C)c3nc-2c(C(=O)N[C@@H]2C(=O)N[C@H](C(C)C)C(=O)N3CCC[C@H]3C(=O)N(C)CC(=O)N(C)[C@@H](C(C)C)C(=O)O[C@@H]2C)c(N)c1=O [Actinomycin D, actinomycin D] (I: T[dV]P[Sar][NMeV] / II: T[dV]P[Sar][NMeV]; ester I:1-I:C, II:1-II:C; linker I:N-II:N via Actinocin(9to1))
- VEGF-mediated induction of MnSOD mRNA (MnSOD mRNA; HCAEC, 10 μg/ml actinomycin D for 30 minutes before 60 minute incubation with VEGF): completely abolished

SMILES: CN(C)CCCn1cc(C2=C(c3c[nH]c4ccccc34)C(=O)NC2=O)c2ccccc21 [BIM, bisindolylmaleimide I]
- VEGF-mediated induction of MnSOD mRNA (MnSOD mRNA; preincubation, BIM 0.1, 1, 5 μM, PD98059 5, 20, 100 μM): inhibited

SMILES: c1ccc2c(c1)[I+]c1ccccc1-2 [DPI, diphenyleneiodonium]
- DPI concentration inhibiting serum-induced thymidine incorporation ([1]; HCAECs in 5.0% FBS, doses 1, 5, 25, 40, 80 μM): ≤ 1 µM
- thymidine uptake [1, 4]: profound inhibition
- DCF oxidation (ROS production) (ROS): significantly inhibited
- VEGF-mediated induction of MnSOD (MnSOD mRNA): inhibited
- migration (cell count) ([2]; 25 μM DPI, VEGF in lower chamber, 4 hours): profound inhibition
- inhibition of migration, dose dependence [2]: dose-dependent

SMILES: CN(C)CCCn1cc(C2=C(c3c[nH]c4ccccc34)C(=O)NC2=O)c2ccccc21 [GF-109203X]
- VEGF stimulation of MnSOD (MnSOD mRNA): significantly reduced

SMILES: COC(=O)[C@@H](N)CCCNC(=N)N[N+](=O)[O-] [L-NAME]
- thymidine incorporation [1]: no effect
- DCF oxidation (ROS production) (ROS): no effect

SMILES: COc1cccc(-c2cc(=O)c3ccccc3o2)c1N [PD98059]
- VEGF stimulation of MnSOD (MnSOD mRNA): not

SMILES: CCCCCCCCCCCCCC(=O)O[C@@H]1[C@@H](C)[C@@]2(O)[C@@H](C=C(CO)C[C@]3(O)C(=O)C(C)=C[C@@H]23)[C@@H]2C(C)(C)[C@]12OC(C)=O [PMA]
- DCF oxidation (ROS production) (ROS): significantly increased

SMILES: COS(=O)(=O)[O-].C[n+]1c2ccccc2nc2ccccc21 [PMS]
- DCF oxidation (ROS production) (ROS): increased ROS production

SMILES: C[S+]([O-])c1ccc(-c2nc(-c3ccncc3)c(-c3ccc(F)cc3)[nH]2)cc1 (stereo not shown) [SB 203580]
- VEGF stimulation of MnSOD (MnSOD mRNA): not

SMILES: Oc1ncnc2[nH]ncc12 [allopurinol]
- thymidine incorporation [1]: no effect
- DCF oxidation (ROS production) (ROS): no effect

SMILES: O=C1c2ccccc2Cc2ccccc21 [anthrone]
- thymidine uptake [1, 4]: profound inhibition

SMILES: COc1cc(C(C)=O)ccc1O [apocynin]
- serum-induced thymidine incorporation ([1]; HCAECs, 5.0% FBS, apocynin 300 μM, 500 μM, 1 mM, 2 mM, 3 mM): dose-dependent inhibition
- thymidine incorporation [3]: failed to reduce incorporation below baseline
- VEGF-mediated induction of MnSOD (MnSOD mRNA): inhibited
